Assay results: patent EP4745138A1, “THIO-GLUTARIMIDO ISOINDOLINONE DERIVATIVE, BIFUNCTIONAL PROTEIN DEGRADER CONTAINING SAME, AND USES THEREOF” (Gluetacs Therapeutics (Shanghai) Co., Ltd., priority 2023, dated 2025)
Where two headings read alike, the source gives them in different places.

What was measured:
SW620 = assay: Tumor cell proliferation inhibition (CellTiter-Meiluncell Luminescent Cell Viability Assay); format: cell-based; details: Homo sapiens, 96 hours; for inhibition at 0.01 µM: SW-620, 10 nM, read-out: Inhibition Rate at 10 nM (%); for inhibition at 0.5 µM: SW-620, 500 nM, read-out: Inhibition Rate at 500 nM (%)
Method: (§1) The tumor cells used herein were cultured in a cell culture medium listed in table 3 at 37°C in an incubator with 5% CO2. Prior to experimentation, all cell lines used were correctly identified by STR profiling, and tested negative for mycoplasma contamination using a mycoplasma detection kit through routine screenings. Table 3. Tumor cells and cell culture medium used in the present disclosure
(§2) The IC50 values of the compounds of the present disclosure (including the compounds in Table 1, Table 2, and Examples) were determined using the CellTiter-Meiluncell Luminescent Cell Viability Assay Kit from Dalian Meilun Biotech Co., Ltd. The detailed procedure is as follows: Tumor cells were seeded in 96-well cell culture plates at the densities specified in Table 4. On the following day, the test compounds of the present disclosure were subjected to serial dilution. […] Subsequently, 0.5 µL of the test compound dilution was transferred into the 96-well plate containing the cells, with each well containing 100 µL of cell culture medium. […] Into the 96-well plate, the diluted test compounds and corresponding detection reagents were added, resulting in final test compound concentrations of 500 nM and 10 nM, respectively. The experimental procedure is described below using the diluted 2 µM test compound as an example.
(§3) 0.5 µL of the aforementioned diluted compound of the present disclosure (including the compounds in Table 1, Table 2, and Examples) was added to the seeded cells in 100 µL of medium, yielding a final test compound concentration of 10 nM. After the cells were treated with the compounds of the present disclosure for a specified period, the cell viability assay reagent was added to the culture medium according to the kit's instructions to determine cell viability. […] All controls were treated using the same procedure as the compounds of the present disclosure. […] Seeding protocol and treatment time for tumor cells

MM.1S = assay: as above; format: cell-based; details: for inhibition at 0.01 µM / inhibition at 0.5 µM: Homo sapiens, MM1.S; for inhibition at 0.01 µM: read-out: Inhibition Rate at 10 nM (%); for inhibition at 0.5 µM: read-out: Inhibition Rate at 500 nM (%)
Method: as §1, §2, §3

MV-4-11 = assay: as above; format: cell-based; details: Homo sapiens, 96 hours; for inhibition at 0.01 µM: MV4-11, 10 nM, read-out: Inhibition Rate at 10 nM (%); for inhibition at 0.5 µM: MV4-11, 500 nM, read-out: Inhibition Rate at 500 nM (%)
Method: as §1, §2, §3

RPMI-8226 = assay: as above; format: cell-based; details: Homo sapiens, 96 hours; for inhibition at 0.01 µM: 10 nM, read-out: Inhibition Rate at 10 nM (%); for inhibition at 0.5 µM: 500 nM, read-out: Inhibition Rate at 500 nM (%)
Method: as §1, §2, §3

[1] = target: T1, human Cereblon WT GST-tagged protein (Homo sapiens, UniProt Q96SW2); assay: CRBN-binding affinity, HTRF (CEREBLON BINDING kit); details: for inhibition at 0.5 µM: read-out: Inhibition Rate at 0.5 µM (%); for inhibition at 2 µM: read-out: Inhibition Rate at 2 µM (%)
T1 construct: purchased CISBIO 64BDCRBNPEH
Procedure, shortened: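 Compounds are serially diluted in diluent #9 (1X) and added at final 2 µM and 0.5 µM. GST-tagged wild-type Cereblon is added next, followed by premixed thalidomide-red reagent and anti-GST Eu antibody, and HTRF signal is measured.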

[2] = Table I-8, SMARCA2/4 inhibitors

T1 sequence (Q96SW2 whole entry): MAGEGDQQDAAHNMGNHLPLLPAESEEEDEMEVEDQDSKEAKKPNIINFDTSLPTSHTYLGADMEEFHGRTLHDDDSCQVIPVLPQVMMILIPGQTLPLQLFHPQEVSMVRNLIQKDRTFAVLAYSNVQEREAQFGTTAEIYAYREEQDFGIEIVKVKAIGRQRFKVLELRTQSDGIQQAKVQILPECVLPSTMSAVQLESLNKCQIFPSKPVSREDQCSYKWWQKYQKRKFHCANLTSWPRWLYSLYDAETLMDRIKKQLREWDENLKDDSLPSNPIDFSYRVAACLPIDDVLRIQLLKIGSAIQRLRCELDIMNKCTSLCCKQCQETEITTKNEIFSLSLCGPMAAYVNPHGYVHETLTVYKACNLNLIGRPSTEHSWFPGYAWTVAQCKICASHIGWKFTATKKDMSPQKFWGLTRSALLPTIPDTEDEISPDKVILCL

SMILES: CC1(C)CCC(CN2CCN(c3ccc(C(=O)NS(=O)(=O)c4ccc(NCC5CCOCC5)c([N+](=O)[O-])c4)c(Oc4cnc5[nH]ccc5c4)c3)CC2)=C(c2ccc(Cl)cc2)C1 [ABT-199, Venetoclax, reference compound]
- inhibition at 0.01 µM (SW620; Table I-15, BCL-2 inhibitors): 5 to 10%
- inhibition at 0.5 µM (SW620; Table I-15, BCL-2 inhibitors): 5 to 10%

SMILES: CC(C)CCN1c2nc(Nc3cc(F)c(O)c(F)c3)ncc2N(C)C(=O)C1C (stereo not drawn) [BI-D1870, reference compound]
- inhibition at 0.01 µM (MM.1S; 96 h): 114%
- inhibition at 0.5 µM (MM.1S; 96 h): 20 to 30%
- inhibition at 0.01 µM (MV-4-11; Table I-11, RSK inhibitors): 0 to 5%
- inhibition at 0.5 µM (MV-4-11; Table I-11, RSK inhibitors): 20 to 30%
- inhibition at 0.01 µM (RPMI-8226; Table I-11, RSK inhibitors): 10 to 20%
- inhibition at 0.5 µM (RPMI-8226; Table I-11, RSK inhibitors): 10 to 20%

SMILES: CNC(=O)c1ccc(Nc2ncc(C(F)(F)F)c(NCc3nccnc3N(C)S(C)(=O)=O)n2)cc1 [Defactinib, reference compound]
- inhibition at 0.01 µM (MM.1S; MM.1S, 10 nM, 96 hours, Table I-12, FAK inhibitors): 10 to 20%
- inhibition at 0.5 µM (MM.1S; MM.1S, 500 nM, 96 hours, Table I-12, FAK inhibitors): 5 to 10%
- inhibition at 0.01 µM (MV-4-11; Table I-12, FAK inhibitors): 0 to 5%
- inhibition at 0.5 µM (MV-4-11; Table I-12, FAK inhibitors): 50 to 60%
- inhibition at 0.01 µM (SW620; Table I-12, FAK inhibitors): 0 to 5%
- inhibition at 0.5 µM (SW620; Table I-12, FAK inhibitors): 5 to 10%

SMILES: Cc1cc(S(=O)(=O)N2CCN(Cc3ccc4c(c3)CN(C3CCC(=O)NC3=O)C4=S)CC2)ccc1Nc1ncc(Br)c(Nc2cccc(F)c2C(N)=O)n1 (stereo not drawn) [GT-08714, 2-((5-bromo-2-((4-((4-((2-(2,6-dioxopiperidin-3-yl)-1-thioxoisoindolin-5-yl)methyl)piperazin-1-yl)sulfonyl)-2-methylphenyl)amino)pyrimidin-4-yl)amino)-6-fluorobenzamide]
- inhibition at 0.01 µM (MM.1S; MM.1S, 10 nM, 96 hours, Table I-8, SMARCA2/4 inhibitors): 30 to 40%
- inhibition at 0.5 µM (MM.1S; MM.1S, 500 nM, 96 hours, Table I-8, SMARCA2/4 inhibitors): 50 to 60%
- inhibition at 0.01 µM (RPMI-8226; [2]): 30 to 40%
- inhibition at 0.5 µM (RPMI-8226; [2]): 40 to 50%
- inhibition at 0.5 µM [1]: 53 to 60%
- inhibition at 2 µM [1]: 60 to 80%

SMILES: C[C@@H]1CNC(=O)c2cc3ccc(C(=O)Nc4cnn(Cc5ccc(N6CCN(Cc7ccc8c(c7)CN(C7CCC(=O)NC7=O)C8=S)CC6)cc5)c4)nc3n21 (stereo partly drawn) [GT-08777, (9R)-N-(1-(4-(4-((2-(2,6-dioxopiperidin-3-yl)-1-thioxoisoindolin-5-yl)methyl)piperazin-1-yl)benzyl)-1H-pyrazol-4-yl)-9-methyl-6-oxo-6,7,8,9-tetrahydropyrido[3',2':4,5]pyrrolo[1,2-a]pyrazine-2-carboxamide]
- inhibition at 0.01 µM (MM.1S; MM.1S, 10 nM, 96 hours, Table I-11, RSK inhibitors): 20 to 30%
- inhibition at 0.5 µM (MM.1S; MM.1S, 500 nM, 96 hours, Table I-11, RSK inhibitors): 50 to 60%
- inhibition at 0.01 µM (MV-4-11; Table I-11, RSK inhibitors): 20 to 30%
- inhibition at 0.5 µM (MV-4-11; Table I-11, RSK inhibitors): 60 to 70%
- inhibition at 0.01 µM (RPMI-8226; Table I-11, RSK inhibitors): 0 to 5%
- inhibition at 0.5 µM (RPMI-8226; Table I-11, RSK inhibitors): 40 to 50%
- inhibition at 0.5 µM [1]: 80 to 100%
- inhibition at 2 µM [1]: 60 to 80%

SMILES: Nc1nnc(-c2ccccc2O)cc1N1CCN(Cc2cccc3c2CN(C2CCC(=O)NC2=O)C3=S)CC1 (stereo not drawn) [GT-08786, 3-(4-((4-(3-amino-6-(2-hydroxyphenyl)pyridazin-4-yl)piperazin-1-yl)methyl)-1-thioxoisoindolin-2-yl)piperidine-2,6-dione]
- inhibition at 0.01 µM (MV-4-11; [2]): 10 to 15%
- inhibition at 0.5 µM (MV-4-11; [2]): 40 to 50%
- inhibition at 0.5 µM [1]: 53 to 60%
- inhibition at 2 µM [1]: 80 to 100%

SMILES: Cc1ccsc1C(=O)n1nc(Nc2ccc(S(=O)(=O)N3CCN(Cc4cccc5c4CN(C4CCC(=O)NC4=O)C5=S)CC3)cc2)nc1N (stereo not drawn) [GT-08797, 3-(4-((4-((4-((5-amino-1-(3-methylthiophene-2-carbonyl)-1H-1,2,4-triazol-3-yl)amino)phenyl)sulfony 1)piperazin-1-yl)methyl)-1-thioxoisoindolin-2-yl)piperidine-2,6-dione]
- inhibition at 0.01 µM (MV-4-11; Table I-13, CDK2 inhibitors): 5 to 10%
- inhibition at 0.5 µM (MV-4-11; Table I-13, CDK2 inhibitors): 60 to 70%
- inhibition at 0.5 µM [1]: 40 to 53%
- inhibition at 2 µM [1]: 53 to 60%

SMILES: CC1(C)CCC(c2ccc(Cl)cc2)=C(CN2CCN(c3ccc(C(=O)NS(=O)(=O)c4ccc(N[C@H](CCN5CCN(Cc6ccc7c(c6)CN(C6CCC(=O)NC6=O)C7=S)CC5)CSc5ccccc5)c(S(=O)(=O)C(F)(F)F)c4)cc3)CC2)C1 (stereo partly drawn) [GT-09415, 4-(4-((4'-chloro-4,4-dimethyl-3,4,5,6-tetrahydro-[1,1'-biphenyl]-2-yl)methyl)piperazin-1-yl)-N-((4-(((2R)-4-(4-((2-(2,6-dioxopiperidin-3-yl)-1-thioxoisoindolin-5-yl)methyl)piperazin-1-yl)-1-(phenylthio)butan-2-yl)amino)-3-((trifluoromethyl)sulfonyl)phenyl)sulfonyl)benzamide]
- inhibition at 0.01 µM (SW620; Table I-15, BCL-2 inhibitors): 30 to 40%
- inhibition at 0.5 µM (SW620; Table I-15, BCL-2 inhibitors): 80 to 100%
- inhibition at 0.5 µM [1]: 53 to 60%
- inhibition at 2 µM [1]: 80 to 100%

SMILES: O=C1CCC(N2Cc3c(CN4CCN(c5ccc(-c6cc(F)c7c(c6)C(=O)N(C(C(=O)Nc6nccs6)c6ncn8c6CCC8)C7)cc5)CC4)cccc3C2=S)C(=O)N1 (stereo not drawn) [GT-09429, 2-(6,7-dihydro-5H-pyrrolo[1,2-c]imidazol-1-yl)-2-(6-(4-(4-((2-(2,6-dioxopiperidin-3-yl)-1-thioxoisoindolin-4-yl)methyl)piperazin-1-yl)phenyl)-4-fluoro-1-oxoisoindolin-2-yl)-N-(thiazol-2-yl)acetamide]
- inhibition at 0.01 µM (SW620; Table I-3, EGFR inhibitors): 10 to 20%
- inhibition at 0.5 µM (SW620; Table I-3, EGFR inhibitors): 70 to 80%

SMILES: Nc1nnc(-c2ccccc2O)cc1N1CCNCC1 [GTC00645]
- inhibition at 0.01 µM (MM.1S; 96 h): 15 to 20%
- inhibition at 0.5 µM (MM.1S; 96 h): 15 to 20%
- inhibition at 0.01 µM (MV-4-11; [2]): 10 to 15%
- inhibition at 0.5 µM (MV-4-11; [2]): 10 to 15%
- inhibition at 0.01 µM (RPMI-8226; [2]): -5 to 0%
- inhibition at 0.5 µM (RPMI-8226; [2]): -5 to 0%

SMILES: Nc1cccc2c1CN(C1CCC(=O)NC1=O)C2=O (stereo not drawn) [Lenalidomide, lenalidomide, reference compound]
- inhibition at 0.5 µM (MM.1S; 96 h): 30 to 35%
- Inhibition Rate at 10 nM (%) (MM.1S; MM.1S, 10 nM, 96 hours, Table I-16, compounds of Formula (II)): ln2

SMILES: CN(C)C(=O)c1cc2cnc(Nc3ccc(N4CCNCC4)cn3)nc2n1C1CCCC1 [Ribociclib, reference compound]
- inhibition at 0.01 µM (MM.1S; MM.1S, 10 nM, 96 hours, Table I-9, CDK4/6 inhibitors): 10 to 20%
- inhibition at 0.5 µM (MM.1S; MM.1S, 500 nM, 96 hours, Table I-9, CDK4/6 inhibitors): 10 to 20%
- inhibition at 0.01 µM (MV-4-11; Table I-9, CDK4/6 inhibitors): 5 to 10%
- inhibition at 0.5 µM (MV-4-11; Table I-9, CDK4/6 inhibitors): 20 to 30%
